Tests used:
[1] = Plasma lipids in Sprague Dawley rats according to the formulation used; type: in vivo, rat; settings: gavage every day for 15 days, with Cremophor RH40 compared with CMC and Solutol HS15
Procedure: A 0.5% (mN) solution of CMC was prepared in water and mixed with 0.1% (VN) Tween 80, then stirred overnight. The inventive compounds were then added and dissolved by stirring and ultrasonication for 30 minutes at 60° C.
The emulsion comprising an inventive compound and a surfactant, Cremophor® RH40 (Polyoxyl 40 Hydrogenated Castor Oil) or Solutol® HS15 (polyethylene glycol 660 12-hydroxystearate) was prepared as follows: the inventive compound was dissolved in a solution of Cremophor® RH40 or Solutol® HS15 previously heated in a water-bath at 60° C. in a ratio for example of 6:1 (m/m). The mixture was placed in a water-bath at 60° C. until a homogeneous mixture was obtained. Said mixture was then dispersed by ultrasonication for 20 minutes at 60° C., at which time the solution became translucid. While stirring, water (MilliQ) preheated at 60° C. was added to the solution to give the desired concentration of the compound. The solution was then mixed on a Vortex® mixer, returned to the water-bath (60° C.) and optionally dispersed by ultrasonication for 30 minutes.
To this end, the compounds were administered by gavage to Sprague Dawley rats every day for 15 days. […]

LDL = LDL oxidation by copper, conjugated diene formation (OD 234 nm); type: biochemical; settings: 10^−4 M
Procedure: Oxidation of LDL is an important modification which plays a major role in the onset and development of atherosclerosis (Jurgens, Hoff et al. 1987). […] Unless otherwise indicated, all reagents were from Sigma (St Quentin, France).
LDL were prepared as described by Lebeau et al. (Lebeau, Furman et al. 2000). The solutions of the test compounds were prepared at 10^−2 M in ethanol and diluted in PBS so that the final concentration ranged from 0.1 to 100 μM with a total ethanol concentration of 1% (VN).
Before oxidation, EDTA was removed from the LDL preparation by dialysis. The oxidation reaction was then carried out at 30° C. by adding 100 μl of 16.6 μM CuSO4 to 800 μl of LDL (125 μg protein/ml) and 100 μl of a test compound solution. The formation of dienes, the species to be followed, was measured by the optical density at 234 nm in the samples treated with the compounds in the presence or absence of copper. Optical density at 234 nm was measured every 10 minutes for 8 hours on a thermostated spectrophotometer (Kontron Uvikon 930). The analyses were carried out in triplicate. A compound was considered to have antioxidant activity when it shifted the lag phase latency relative to the control sample. […] FIG. 4 presents an example of the results obtained with the inventive compounds.

Compound: CCCCCCCCCCCCCCSCC(=O)OCC(COC(=O)CSCCCCCCCCCCCCCC)OC(=O)CSCCCCCCCCCCCCCC [Ex 4a, 1,2,3-tritetradecylthioacetylglycerol]
- plasma triglycerides [1]: larger decrease
- total plasma cholesterol [1]: larger decrease
- LDL oxidation rate (rate of conjugated diene formation) (LDL; copper alone 3 nmol/min/mg of LDL): 1 nmol/min/mg of LDL
- decrease in the maximum amount of conjugated dienes formed (LDL; copper alone 496 nmol per mg of LDL): 60%
- lag phase for conjugated diene formation (LDL; copper alone 104 minutes): 270 min
- decrease in the oxidation rate (LDL; relative to copper alone): 66%
- increase in the lag phase (LDL; relative to copper alone): 160%
